Reference: US9006139B2, “Active compound combinations” (Bayer Intellectual Property GmbH, priority 2009, dated 2015)
Where two headings read alike, the source gives them in different places.

What was measured:
Assay type in all cases: in vivo
[1] = test system: Plasmopara viticola; test: Plasmopara test (grapevines)/protective; conditions: Table B; 50 ppm a.i.
Procedure: Solvent: 24.5 parts by weight of acetone
• 24.5 parts by weight of dimethylacetamide Emulsifier: 1 part by weight of alkylaryl polyglycol ether
To produce a suitable preparation of active compound, 1 part by weight of active compound is mixed with the stated amounts of solvent and emulsifier, and the concentrate is diluted with water to the desired concentration. To test for protective activity, young plants are sprayed with the preparation of active compound at the stated rate of application. After the spray coating has dried on, the plants are inoculated with an aqueous spore suspension of Plasmopara viticola and then remain for 1 day in an incubation cabinet at approximately 20° C. and a relative atmospheric humidity of 100%. The plant is subsequently placed for 4 days in a greenhouse at approximately 21° C. and a relative atmospheric humidity of approximately 90%. The plants are then misted and placed for 1 day in an incubation cabinet. The test is evaluated 6 days after the inoculation. 0% means an efficacy which corresponds to that of the control, while an efficacy of 100% means that no disease is observed.

[2] = test system: Sphaerotheca fuliginea; test: Sphaerotheca test (cucumbers)/protective; conditions: Podosphaera fuliginea, 168 h, Table C, read-out: Efficacy in % found; for pest or weed control at 50 ppm: 50 ppm a.i.; for pest or weed control at 200 ppm: 200 ppm a.i.; for pest or weed control at 100 ppm: 100 ppm a.i.
Summary of the method: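 Young cucumber plants sprayed protectively with compound in acetone/dimethylacetamide with emulsifier, water-diluted, at the stated rate. After drying, plants inoculated with Sphaerotheca fuliginea spores and kept at ~23° C and ~70% RH. Efficacy scored at 7 days: 0% = untreated control, 100% = no disease.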

[3] = test system: Botrytis cinerea; test: Botrytis test (beans)/protective; conditions: Botrytis cinerea, 48 h, Table F, read-out: Efficacy in % found; for pest or weed control at 25 ppm: 25 ppm a.i.; for pest or weed control at 50 ppm: 50 ppm a.i.
Summary of the method: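 Young bean plants were sprayed with compound in acetone/dimethylacetamide plus emulsifier diluted in water; once dry, each leaf got 2 agar pieces bearing Botrytis cinerea. Plants were held dark at 20 °C and 100% relative humidity, and lesion size was scored after 2 days as efficacy, 0% matching untreated control and 100% meaning no disease.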

[4] = test system: Blumeria graminis fsp. tritici; test: Blumeria test (wheat)/preventive; conditions: Table G; 500 ppm a.i.
Procedure: (§1) Solvent: 49 parts by weight of n,n-dimethylacetamid
(§2) Emulsifier: 1 part by weight of alkylaryl polyglycol ether
(§3) To produce a suitable preparation of active compound, 1 part by weight of active compound or active compound combination is mixed with the stated amounts of solvent and emulsifier, and the concentrate is diluted with water to the desired concentration. To test for preventive activity, young plants are sprayed with the preparation of active compound or active compound combination at the stated rate of application. After the spray coating has been dried, the plants are dusted with spores of Blumeria graminis fsp. tritici. The plants are placed in the greenhouse at a temperature of approximately 18° C. and a relative atmospheric humidity of approximately 80% to promote the development of mildew pustules. The test is evaluated 7 days after the inoculation. 0% means an efficacy which corresponds to that of the untreated control, while an efficacy of 100% means that no disease is observed.

[5] = test system: Pyrenophora teres; test: Pyrenophora teres-test (barley)/preventive
Procedure: as §1, §2
as §3, with “sprayed” for “dusted”, “a spore suspension” for “spores”, “Pyrenophora teres. The plants remain for 48 hours in an incubation cabinet at approximately 20° C. and a relative atmospheric humidity of approximately 100%.” for “Blumeria graminis fsp. tritici.”, “20°” for “18°”, “80%.” for “80% to promote the development of mildew pustules.”, “8” for “7”

[6] = test system: Leptosphaeria nodorum; test: Leptosphaeria nodorum test (wheat)/preventive; conditions: Parastagonospora nodorum, 192 h, Table K, read-out: Efficacy in % found
Procedure: as §1, §2
as §3, with “sprayed” for “dusted”, “a spore suspension” for “spores”, “Leptosphaeria nodorum. The plants remain for 48 hours in an incubation cabinet at approximately 20° C. and a relative atmospheric humidity of approximately 100%.” for “Blumeria graminis fsp. tritici.”, “22°” for “18°”, “80%.” for “80% to promote the development of mildew pustules.”, “8” for “7”

[7] = test system: Fusarium graminearum; conditions: Table L; 500 ppm a.i.

Cn1c(=O)c2sc3c(=O)n(C)c(=O)c3sc2c1=O [(I-1), 2,6-dimethyl-1H,5H-[1,4]dithiino[2,3-c:5,6-c′]dipyrrole-1,3,5,7(2H,6H)-tetrone]
Efficacy in % found [1]: 54%
pest or weed control at 50 ppm ([2]; test 1): 0%
pest or weed control at 200 ppm ([2]; test 1): 30%
pest or weed control at 50 ppm ([2]; test 2): 38%
pest or weed control at 200 ppm ([2]; test 2): 65%
pest or weed control at 50 ppm ([2]; test 3): 20%
pest or weed control at 100 ppm ([2]; test 3): 30%
pest or weed control at 100 ppm ([2]; test 4): 19%
pest or weed control at 25 ppm ([3]; test 1): 0%
pest or weed control at 50 ppm ([3]; test 1): 45%
pest or weed control at 25 ppm ([3]; test 2): 0%
pest or weed control at 50 ppm ([3]; test 2): 40%
pest or weed control at 12.5 ppm ([3]; test 3, 12.5 ppm a.i.): 0%
pest or weed control at 50 ppm ([3]; test 3): 58%
Efficacy in % found [4]: 75%
Efficacy in % found ([5]; Table I1, 500 ppm a.i.): 10%
Efficacy in % found ([5]; Table I1, 1000 ppm a.i.): 44%
Efficacy in % found ([5]; Table I2, 1000 ppm a.i.): 22%
pest or weed control at 500 ppm ([6]; 500 ppm a.i.): 13%
pest or weed control at 1000 ppm ([6]; 1000 ppm a.i.): 11%
Efficacy in % found [7]: 0%
